Assays:
[1] = target: T1, Transcription intermediary factor 1-alpha (Homo sapiens) (UniProt O15164); assay: Binding affinity to TRIM24 (unknown origin) assessed as change in melting temperature at 100 uM incubated for 30 mins by thermal shift assay
T1 sequence (whole entry): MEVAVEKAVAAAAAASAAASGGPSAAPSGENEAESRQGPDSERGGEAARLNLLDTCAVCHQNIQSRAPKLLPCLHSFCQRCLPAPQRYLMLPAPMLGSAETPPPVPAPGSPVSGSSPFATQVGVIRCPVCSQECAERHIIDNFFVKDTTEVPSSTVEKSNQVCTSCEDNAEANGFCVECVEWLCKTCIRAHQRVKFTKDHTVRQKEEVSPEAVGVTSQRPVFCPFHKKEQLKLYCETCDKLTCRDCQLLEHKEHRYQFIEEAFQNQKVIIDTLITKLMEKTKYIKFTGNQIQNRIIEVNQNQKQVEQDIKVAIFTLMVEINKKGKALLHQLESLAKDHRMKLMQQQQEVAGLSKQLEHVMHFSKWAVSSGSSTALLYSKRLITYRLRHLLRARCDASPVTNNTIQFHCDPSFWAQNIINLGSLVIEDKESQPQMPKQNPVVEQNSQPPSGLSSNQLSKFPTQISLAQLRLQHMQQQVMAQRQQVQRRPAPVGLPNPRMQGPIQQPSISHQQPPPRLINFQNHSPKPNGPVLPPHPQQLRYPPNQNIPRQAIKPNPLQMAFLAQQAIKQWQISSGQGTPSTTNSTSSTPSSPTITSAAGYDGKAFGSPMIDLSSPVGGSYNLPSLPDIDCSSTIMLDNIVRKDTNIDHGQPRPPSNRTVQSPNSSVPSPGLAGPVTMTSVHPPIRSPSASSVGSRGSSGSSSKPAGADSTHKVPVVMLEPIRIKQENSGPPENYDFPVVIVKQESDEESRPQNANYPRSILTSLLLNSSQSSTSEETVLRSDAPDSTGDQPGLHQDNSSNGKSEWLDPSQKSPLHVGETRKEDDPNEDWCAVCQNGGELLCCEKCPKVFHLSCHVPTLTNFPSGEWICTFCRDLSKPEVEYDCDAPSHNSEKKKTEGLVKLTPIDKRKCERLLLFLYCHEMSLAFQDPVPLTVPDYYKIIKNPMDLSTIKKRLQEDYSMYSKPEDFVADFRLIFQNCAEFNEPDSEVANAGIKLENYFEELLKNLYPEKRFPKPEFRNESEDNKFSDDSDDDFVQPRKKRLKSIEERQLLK

[2] = target: Histone acetyltransferase KAT2B (Homo sapiens) (UniProt Q92831); assay: Binding affinity to PCAF (unknown origin) assessed as change in melting temperature at 100 uM incubated for 30 mins by thermal shift assay
[3] = target: PH-interacting protein (Homo sapiens) (UniProt Q8WWQ0); assay: Binding affinity to PHIP-2 (unknown origin) assessed as change in melting temperature at 100 uM incubated for 30 mins by thermal shift assay
[4] = target: Bromodomain-containing protein 2 (Homo sapiens, UniProt P25440); assay: Binding affinity to His6-fused BRD2 BD2 (unknown origin) assessed as change in melting temperature at 100 uM incubated for 30 mins by thermal shift assay
Homo sapiens = species: Homo sapiens; assay: Selectivity index, ratio of IC50 for BRD4 BD1 (unknown origin) to IC50 of BRD4 BD2 (unknown origin)
[5] = target: T2, Bromodomain testis-specific protein (Homo sapiens, UniProt Q58F21); assay: Binding affinity to His6-fused BRDT BD1 (unknown origin) assessed as change in melting temperature at 100 uM incubated for 30 mins by thermal shift assay
[6] = target: T2, Bromodomain testis-specific protein; assay: Binding affinity to His6-fused BRDT BD2 (unknown origin) assessed as change in melting temperature at 100 uM incubated for 30 mins by thermal shift assay
[7] = target: T3, Bromodomain-containing protein 4 (Homo sapiens, UniProt O60885); details: dose 100.0 µM, time 30.0 min
[8] = target: Transcription initiation factor TFIID subunit 1 (Homo sapiens) (UniProt P21675); assay: Binding affinity to TAF1 BD1(unknown origin) assessed as change in melting temperature at 100 uM incubated for 30 mins by thermal shift assay
[9] = target: SWI/SNF-related matrix-associated actin-dependent regulator of chromatin subfamily A member 2 (Homo sapiens) (UniProt P51531); assay: Binding affinity to SMARCA2B (unknown origin) assessed as change in melting temperature at 100 uM incubated for 30 mins by thermal shift assay
[10] = target: T3, Bromodomain-containing protein 4; assay: Inhibition of C-terminal His6-tagged BRD4 BD2 (unknown origin) using H-YSGRGK(Ac)GGK(Ac)GLGK(Ac)-GGAK(Ac)RHRK-Biotin-OH as substrate incubated for 1 hrs by HTRF assay
[11] = target: T4, Bromodomain-containing protein 9 (Homo sapiens) (UniProt Q9H8M2); assay: Binding affinity to His6-fused BRD9 (unknown origin) assessed as change in melting temperature at 100 uM incubated for 30 mins by thermal shift assay
T4 sequence (whole entry): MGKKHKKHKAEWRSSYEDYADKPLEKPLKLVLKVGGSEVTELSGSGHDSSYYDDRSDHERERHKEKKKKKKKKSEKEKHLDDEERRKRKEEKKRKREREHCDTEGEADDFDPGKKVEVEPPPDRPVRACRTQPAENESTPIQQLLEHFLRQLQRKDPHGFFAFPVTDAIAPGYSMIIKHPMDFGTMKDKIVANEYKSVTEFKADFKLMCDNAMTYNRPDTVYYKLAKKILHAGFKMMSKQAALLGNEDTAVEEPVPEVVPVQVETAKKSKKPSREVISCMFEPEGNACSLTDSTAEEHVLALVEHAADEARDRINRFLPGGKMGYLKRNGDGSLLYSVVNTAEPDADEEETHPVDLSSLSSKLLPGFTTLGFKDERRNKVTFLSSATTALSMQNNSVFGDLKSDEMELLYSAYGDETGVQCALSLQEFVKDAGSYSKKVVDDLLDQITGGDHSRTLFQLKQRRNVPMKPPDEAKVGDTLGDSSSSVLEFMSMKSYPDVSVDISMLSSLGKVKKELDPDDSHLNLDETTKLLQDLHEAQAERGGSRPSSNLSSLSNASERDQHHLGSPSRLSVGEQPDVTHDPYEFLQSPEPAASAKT

[12] = target: T5, Bromodomain-containing protein 3 (Homo sapiens, UniProt Q15059); assay: Binding affinity to His6-fused BRD3 BD2 (unknown origin) assessed as change in melting temperature at 100 uM incubated for 30 mins by thermal shift assay
[13] = target: CREB-binding protein (Homo sapiens) (UniProt Q92793); assay: Binding affinity to CBP (unknown origin) assessed as change in melting temperature at 100 uM incubated for 30 mins by thermal shift assay
[14] = target: T5, Bromodomain-containing protein 3; assay: Binding affinity to His6-fused BRD3 BD1 (unknown origin) assessed as change in melting temperature at 100 uM incubated for 30 mins by thermal shift assay
[15] = target: Transcription initiation factor TFIID subunit 1 (Homo sapiens) (UniProt P21675); assay: Binding affinity to TAF1 BD2 (unknown origin) assessed as change in melting temperature at 100 uM incubated for 30 mins by thermal shift assay

Sequence of Bromodomain-containing protein 2 (P25440 whole entry, looked up, the tested form may be a part): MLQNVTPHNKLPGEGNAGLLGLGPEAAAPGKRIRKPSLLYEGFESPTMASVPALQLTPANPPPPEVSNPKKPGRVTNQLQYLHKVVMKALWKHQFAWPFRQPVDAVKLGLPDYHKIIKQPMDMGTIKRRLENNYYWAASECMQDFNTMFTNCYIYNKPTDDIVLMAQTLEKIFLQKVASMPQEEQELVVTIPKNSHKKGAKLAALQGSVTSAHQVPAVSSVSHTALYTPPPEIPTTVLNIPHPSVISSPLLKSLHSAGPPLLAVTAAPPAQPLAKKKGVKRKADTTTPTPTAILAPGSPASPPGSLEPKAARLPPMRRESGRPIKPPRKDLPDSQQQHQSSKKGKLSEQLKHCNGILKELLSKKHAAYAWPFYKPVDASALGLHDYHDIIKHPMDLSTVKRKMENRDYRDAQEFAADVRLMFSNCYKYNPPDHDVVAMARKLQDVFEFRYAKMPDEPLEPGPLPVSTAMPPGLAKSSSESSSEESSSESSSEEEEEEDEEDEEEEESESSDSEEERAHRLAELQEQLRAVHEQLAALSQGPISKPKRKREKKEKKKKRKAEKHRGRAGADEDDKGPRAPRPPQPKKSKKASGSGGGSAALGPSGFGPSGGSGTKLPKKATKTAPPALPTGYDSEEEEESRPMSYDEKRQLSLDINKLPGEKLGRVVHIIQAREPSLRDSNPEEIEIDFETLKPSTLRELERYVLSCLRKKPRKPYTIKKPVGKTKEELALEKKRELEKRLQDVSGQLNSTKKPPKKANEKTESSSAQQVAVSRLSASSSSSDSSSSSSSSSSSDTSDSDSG
Sequence of Histone acetyltransferase KAT2B (Homo sapiens) (Q92831 whole entry, looked up): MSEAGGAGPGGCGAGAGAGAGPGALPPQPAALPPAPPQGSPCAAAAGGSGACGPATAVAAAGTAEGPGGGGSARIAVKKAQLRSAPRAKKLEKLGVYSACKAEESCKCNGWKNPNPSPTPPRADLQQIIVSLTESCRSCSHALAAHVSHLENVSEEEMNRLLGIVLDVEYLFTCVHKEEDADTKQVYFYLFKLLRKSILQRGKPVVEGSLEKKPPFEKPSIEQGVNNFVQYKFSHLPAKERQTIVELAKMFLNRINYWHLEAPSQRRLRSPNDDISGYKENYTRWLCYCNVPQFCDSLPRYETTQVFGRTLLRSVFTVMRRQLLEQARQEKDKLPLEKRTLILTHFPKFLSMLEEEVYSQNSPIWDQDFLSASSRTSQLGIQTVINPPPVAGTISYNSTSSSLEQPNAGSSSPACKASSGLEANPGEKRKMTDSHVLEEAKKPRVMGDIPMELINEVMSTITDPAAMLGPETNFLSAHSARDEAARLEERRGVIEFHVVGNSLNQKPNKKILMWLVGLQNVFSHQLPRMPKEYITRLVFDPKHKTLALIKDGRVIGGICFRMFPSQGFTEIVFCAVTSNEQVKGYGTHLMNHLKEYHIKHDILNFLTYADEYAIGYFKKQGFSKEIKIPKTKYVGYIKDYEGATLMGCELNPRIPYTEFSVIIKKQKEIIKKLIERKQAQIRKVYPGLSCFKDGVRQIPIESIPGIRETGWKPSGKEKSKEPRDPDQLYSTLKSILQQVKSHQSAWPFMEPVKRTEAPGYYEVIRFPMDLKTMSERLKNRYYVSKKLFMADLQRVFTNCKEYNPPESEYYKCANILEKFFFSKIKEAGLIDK
Sequence of Transcription initiation factor TFIID subunit 1 (Homo sapiens) (P21675 whole entry): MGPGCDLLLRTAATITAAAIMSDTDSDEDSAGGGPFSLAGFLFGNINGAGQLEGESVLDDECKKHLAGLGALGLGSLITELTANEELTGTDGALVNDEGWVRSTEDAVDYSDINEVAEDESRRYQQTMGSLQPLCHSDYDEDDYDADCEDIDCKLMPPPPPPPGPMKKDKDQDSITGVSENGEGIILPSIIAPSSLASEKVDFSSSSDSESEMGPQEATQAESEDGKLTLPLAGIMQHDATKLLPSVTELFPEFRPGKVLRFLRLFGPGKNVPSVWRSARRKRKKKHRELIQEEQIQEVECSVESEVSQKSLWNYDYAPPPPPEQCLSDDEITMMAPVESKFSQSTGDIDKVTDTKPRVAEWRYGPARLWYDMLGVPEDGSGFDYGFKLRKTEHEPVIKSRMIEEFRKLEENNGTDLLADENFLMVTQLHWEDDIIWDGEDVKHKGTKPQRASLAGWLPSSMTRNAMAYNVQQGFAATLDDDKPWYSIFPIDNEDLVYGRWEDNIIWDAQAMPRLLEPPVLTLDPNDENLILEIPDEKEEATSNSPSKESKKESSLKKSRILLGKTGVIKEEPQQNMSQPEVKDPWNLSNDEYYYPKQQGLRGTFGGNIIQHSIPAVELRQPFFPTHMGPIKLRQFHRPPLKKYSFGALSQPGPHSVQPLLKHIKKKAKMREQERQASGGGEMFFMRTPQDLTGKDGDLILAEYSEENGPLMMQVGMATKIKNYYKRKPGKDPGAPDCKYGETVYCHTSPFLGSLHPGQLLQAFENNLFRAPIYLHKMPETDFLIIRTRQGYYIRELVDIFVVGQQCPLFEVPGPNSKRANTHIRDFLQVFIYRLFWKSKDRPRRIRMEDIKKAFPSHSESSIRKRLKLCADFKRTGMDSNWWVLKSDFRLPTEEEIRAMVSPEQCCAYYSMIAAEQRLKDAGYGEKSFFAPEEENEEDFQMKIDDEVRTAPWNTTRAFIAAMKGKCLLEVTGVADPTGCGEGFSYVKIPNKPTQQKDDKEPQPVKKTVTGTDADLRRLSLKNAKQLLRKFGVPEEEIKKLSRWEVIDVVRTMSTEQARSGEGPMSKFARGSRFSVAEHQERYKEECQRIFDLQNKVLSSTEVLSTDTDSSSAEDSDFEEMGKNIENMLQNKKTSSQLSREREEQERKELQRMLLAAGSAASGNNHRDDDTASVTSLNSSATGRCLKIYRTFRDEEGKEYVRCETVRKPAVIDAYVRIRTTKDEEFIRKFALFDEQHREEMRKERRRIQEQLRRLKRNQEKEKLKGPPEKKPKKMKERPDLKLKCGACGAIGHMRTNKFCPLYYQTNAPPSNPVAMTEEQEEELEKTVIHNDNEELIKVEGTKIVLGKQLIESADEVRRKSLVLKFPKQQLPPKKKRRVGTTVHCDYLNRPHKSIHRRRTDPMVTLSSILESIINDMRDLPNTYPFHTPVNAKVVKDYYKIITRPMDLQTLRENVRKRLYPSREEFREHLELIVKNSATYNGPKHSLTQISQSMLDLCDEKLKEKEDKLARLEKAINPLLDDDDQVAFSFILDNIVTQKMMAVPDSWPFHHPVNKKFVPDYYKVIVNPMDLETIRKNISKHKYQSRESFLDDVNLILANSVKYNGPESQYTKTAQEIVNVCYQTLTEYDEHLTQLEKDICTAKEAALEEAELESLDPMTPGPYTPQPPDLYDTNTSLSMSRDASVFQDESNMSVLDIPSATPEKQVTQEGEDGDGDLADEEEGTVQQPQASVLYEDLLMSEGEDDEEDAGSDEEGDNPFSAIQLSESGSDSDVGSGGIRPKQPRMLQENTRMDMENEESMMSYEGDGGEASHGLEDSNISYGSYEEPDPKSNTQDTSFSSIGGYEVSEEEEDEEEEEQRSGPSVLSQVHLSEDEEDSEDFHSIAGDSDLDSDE
T5 sequence (Q15059 2-726 limits assumed): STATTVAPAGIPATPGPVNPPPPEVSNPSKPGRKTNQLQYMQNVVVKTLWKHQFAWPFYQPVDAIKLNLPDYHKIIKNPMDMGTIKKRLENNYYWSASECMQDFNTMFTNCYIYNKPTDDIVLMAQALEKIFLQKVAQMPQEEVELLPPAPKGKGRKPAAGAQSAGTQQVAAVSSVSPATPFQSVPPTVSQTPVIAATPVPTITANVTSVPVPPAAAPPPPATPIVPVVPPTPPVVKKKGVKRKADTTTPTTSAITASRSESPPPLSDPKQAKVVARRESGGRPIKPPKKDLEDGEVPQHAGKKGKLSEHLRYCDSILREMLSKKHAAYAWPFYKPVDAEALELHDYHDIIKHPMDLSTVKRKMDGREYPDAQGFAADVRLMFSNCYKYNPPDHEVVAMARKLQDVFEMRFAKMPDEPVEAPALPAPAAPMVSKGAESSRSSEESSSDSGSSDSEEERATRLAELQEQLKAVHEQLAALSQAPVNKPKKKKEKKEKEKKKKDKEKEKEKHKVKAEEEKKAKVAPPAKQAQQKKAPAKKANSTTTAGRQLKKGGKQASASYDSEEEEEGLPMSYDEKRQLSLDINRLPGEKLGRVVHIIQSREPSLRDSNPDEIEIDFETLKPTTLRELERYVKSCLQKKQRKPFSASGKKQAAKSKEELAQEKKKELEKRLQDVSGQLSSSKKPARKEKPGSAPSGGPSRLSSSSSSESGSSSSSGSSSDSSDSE

ΔTm [1] [°C] | ΔTm [2] [°C] | ΔTm [3] [°C] | ΔTm [4] [°C] | Ratio IC50 (Homo sapiens) | ΔTm [5] [°C] | ΔTm [6] [°C] | ΔTm [7] [°C] | ΔTm [8] [°C] | ΔTm [9] [°C] | IC50 [10] [nM] | ΔTm [11] [°C] | ΔTm [12] [°C] | ΔTm [13] [°C] | ΔTm [14] [°C] | ΔTm [15] [°C] | SMILES
-1.5 | -0.5 | -2 | 11.2 | 275 | 2.75 | 15 | 16.2 | -1.25 | -0.25 | 0.59 | -2 | 13 | 1 | 4.5 | -1.25 | Cc1cc(F)cc(C)c1Oc1ccc(C(C)(C)O)cc1-c1cn(C)c(=O)c2cc(-c3cnc(C4CC4)[nH]3)oc12
-1.25 | -1 | -2 | 11.2 | 294 | 3 | 14.5 | 16 | -1 | 0.75 | 0.52 | -0.5 | 12 | 0.5 | 4 | -1 | Cc1cc(F)cc(C)c1Oc1ccc(C(C)(C)O)cc1-c1cn(C)c(=O)c2cc(-c3cnc(C4CCC4)[nH]3)oc12
-1 | 0 | -2 | 10.2 |  | 2 | 13.2 |  | -1 | 1 |  | -0.75 | 11.5 | 0.75 |  |  | Cc1cc(F)cc(C)c1Oc1ccc(C(C)(C)O)cc1-c1cn(C)c(=O)c2cc(-c3cnc(C4CCCC4)[nH]3)oc12
-1 | 0.25 | -2 | 8 | 226 | 2 | 11 | 14 | -1.25 | 1 | 1.44 | -1.25 | 9 | 0.5 | 1.25 | -1 | Cc1cc(F)cc(C)c1Oc1ccc(C(C)(C)O)cc1-c1cn(C)c(=O)c2cc(-c3cnc(C4CCCCC4)[nH]3)oc12

From ChEMBL document CHEMBL5154816, “Structure-Based Discovery and Optimization of Furo[3,2-c]pyridin-4(5H)-one Derivatives as Potent and Second Bromodomain (BD2)-Selective Bromo and Extra Terminal Domain (BET) Inhibitors” (J Med Chem, 2022)
